Measured values from ChEMBL document CHEMBL1208720, “N-Benzylsalicylthioamides as novel compounds with promising antimycotic activity” (2010).
≈ marks a conversion by molar mass, not a printed value.

What was measured:
Assay type in all cases: functional
Nakaseomyces glabratus [1] = assay: Antifungal activity against Candida glabrata 20/I after 48 hrs by broth microdilution assay; details: for MIC: Nakaseomyces glabratus, 20/I, 48 h
Trichosporon asahii [2] = assay: Antifungal activity against Trichosporon asahii 1188 after 24 hrs by broth microdilution assay; details: for MIC: Trichosporon asahii, 1188, 24 h
Trichosporon asahii [3] = assay: Antifungal activity against Trichosporon asahii 1188 after 48 hrs by broth microdilution assay; details: for MIC: Trichosporon asahii, 1188, 48 h
Pichia kudriavzevii [4] = assay: Antifungal activity against Candida krusei E28 after 48 hrs by broth microdilution assay; details: for MIC: Pichia kudriavzevii, E28, 48 h
Lichtheimia corymbifera [5] = assay: Antifungal activity against Absidia corymbifera 272 after 24 hrs by broth microdilution assay; details: for MIC: Lichtheimia corymbifera, 272, 24 h
Candida albicans [6] = assay: Antifungal activity against Candida albicans ATCC 44859 after 48 hrs by broth microdilution assay; details: for MIC: Candida albicans, ATCC 44859, 48 h
Nakaseomyces glabratus [7] = assay: Antifungal activity against Candida glabrata 20/I after 24 hrs by broth microdilution assay; details: for MIC: Nakaseomyces glabratus, 20/I, 24 h
Pichia kudriavzevii [8] = assay: Antifungal activity against Candida krusei E28 after 24 hrs by broth microdilution assay; details: for MIC: Pichia kudriavzevii, E28, 24 h
Aspergillus fumigatus [9] = assay: Antifungal activity against Aspergillus fumigatus 231 after 24 hrs by broth microdilution assay; details: for MIC: Aspergillus fumigatus, 231, 24 h
Candida tropicalis [10] = assay: Antifungal activity against Candida tropicalis 159 after 24 hrs by broth microdilution assay; details: for MIC: Candida tropicalis, 159, 24 h
Lichtheimia corymbifera [11] = assay: Antifungal activity against Absidia corymbifera 272 after 48 hrs by broth microdilution assay; details: for MIC: Lichtheimia corymbifera, 272, 48 h
[12] = tested on: Trichophyton mentagrophytes; assay: Antifungal activity against Trichophyton mentagrophytes 445 after 120 hrs by broth microdilution assay; details: for MIC: Trichophyton mentagrophytes, 445, 120 h
Candida albicans [13] = assay: Antifungal activity against Candida albicans ATCC 44859 after 24 hrs by broth microdilution assay; details: for MIC: Candida albicans, ATCC 44859, 24 h
Candida tropicalis [14] = assay: Antifungal activity against Candida tropicalis 159 after 48 hrs by broth microdilution assay; details: for MIC: Candida tropicalis, 159, 48 h
[15] = tested on: Trichophyton mentagrophytes; assay: Antifungal activity against Trichophyton mentagrophytes 445 after 72 hrs by broth microdilution assay; details: for MIC: Trichophyton mentagrophytes, 445, 72 h
Aspergillus fumigatus [16] = assay: Antifungal activity against Aspergillus fumigatus 231 after 48 hrs by broth microdilution assay; details: for MIC: Aspergillus fumigatus, 231, 48 h

| MIC (Nakaseomyces glabratus [1]) [µM] | MIC (Trichosporon asahii [2]) [µM] | MIC (Trichosporon asahii [3]) [µM] | MIC (Pichia kudriavzevii [4]) [µM] | MIC (Lichtheimia corymbifera [5]) [µM] | MIC (Candida albicans [6]) [µM] | MIC (Nakaseomyces glabratus [7]) [µM] | MIC (Pichia kudriavzevii [8]) [µM] | MIC (Aspergillus fumigatus [9]) [µM] | MIC (Candida tropicalis [10]) [µM] | MIC (Lichtheimia corymbifera [11]) [µM] | MIC [12] [µM] | MIC (Candida albicans [13]) [µM] | MIC (Candida tropicalis [14]) [µM] | MIC [15] [µM] | MIC (Aspergillus fumigatus [16]) [µM] | SMILES | also measured |
| --- | --- | --- | --- | --- | --- | --- | --- | --- | --- | --- | --- | --- | --- | --- | --- | --- | --- |
| 125 (≈ 32.2 µg/mL) | 31.2 (≈ 8.04 µg/mL) | 62.5 (≈ 16.1 µg/mL) | 125 (≈ 32.2 µg/mL) | 15.6 (≈ 4.02 µg/mL) | 125 (≈ 32.2 µg/mL) | 125 (≈ 32.2 µg/mL) | 62.5 (≈ 16.1 µg/mL) | 125 (≈ 32.2 µg/mL) | 125 (≈ 32.2 µg/mL) | 31.2 (≈ 8.04 µg/mL) | 15.6 (≈ 4.02 µg/mL) | 62.5 (≈ 16.1 µg/mL) | 125 (≈ 32.2 µg/mL) | 31.2 (≈ 8.04 µg/mL) | 250 (≈ 64.3 µg/mL) | Cc1ccc(CNC(=S)c2ccccc2O)cc1 | – |
| 250 (≈ 65.3 µg/mL) | 31.2 (≈ 8.17 µg/mL) | 62.5 (≈ 16.3 µg/mL) | 125 (≈ 32.7 µg/mL) | 15.6 (≈ 4.08 µg/mL) | 125 (≈ 32.7 µg/mL) | 125 (≈ 32.7 µg/mL) | 62.5 (≈ 16.3 µg/mL) | 62.5 (≈ 16.3 µg/mL) | 125 (≈ 32.7 µg/mL) | 31.2 (≈ 8.17 µg/mL) | 31.2 (≈ 8.17 µg/mL) | 62.5 (≈ 16.3 µg/mL) | 250 (≈ 65.3 µg/mL) | 7.81 (≈ 2.04 µg/mL) | 62.5 (≈ 16.3 µg/mL) | Oc1ccccc1C(=S)NCc1ccc(F)cc1 | – |
| 250 (≈ 64.3 µg/mL) | 31.2 (≈ 8.04 µg/mL) | 62.5 (≈ 16.1 µg/mL) | 250 (≈ 64.3 µg/mL) | 62.5 (≈ 16.1 µg/mL) | 250 (≈ 64.3 µg/mL) | 125 (≈ 32.2 µg/mL) | 125 (≈ 32.2 µg/mL) | 62.5 (≈ 16.1 µg/mL) | 125 (≈ 32.2 µg/mL) | 15.6 (≈ 4.02 µg/mL) | 15.6 (≈ 4.02 µg/mL) | 125 (≈ 32.2 µg/mL) | 250 (≈ 64.3 µg/mL) | 15.6 (≈ 4.02 µg/mL) | 62.5 (≈ 16.1 µg/mL) | Cc1cccc(CNC(=S)c2ccccc2O)c1 | – |

Second part, the compound before the results:

| SMILES | MIC (Nakaseomyces glabratus [1]) [µM] | MIC (Trichosporon asahii [2]) [µM] | MIC (Trichosporon asahii [3]) [µM] | MIC (Pichia kudriavzevii [4]) [µM] | MIC (Lichtheimia corymbifera [5]) [µM] | MIC (Candida albicans [6]) [µM] | MIC (Nakaseomyces glabratus [7]) [µM] | MIC (Pichia kudriavzevii [8]) [µM] | MIC (Aspergillus fumigatus [9]) [µM] | MIC (Candida tropicalis [10]) [µM] | MIC (Lichtheimia corymbifera [11]) [µM] | MIC [12] [µM] | MIC (Candida albicans [13]) [µM] | MIC (Candida tropicalis [14]) [µM] | MIC [15] [µM] | MIC (Aspergillus fumigatus [16]) [µM] | also measured |
| --- | --- | --- | --- | --- | --- | --- | --- | --- | --- | --- | --- | --- | --- | --- | --- | --- | --- |
| Oc1ccc(Cl)cc1C(=S)NCc1ccccc1 | 62.5 (≈ 17.4 µg/mL) | 31.2 (≈ 8.68 µg/mL) | 31.2 (≈ 8.68 µg/mL) | 31.2 (≈ 8.68 µg/mL) | 15.6 (≈ 4.34 µg/mL) | 125 (≈ 34.7 µg/mL) | 15.6 (≈ 4.34 µg/mL) | 15.6 (≈ 4.34 µg/mL) | 31.2 (≈ 8.68 µg/mL) | 62.5 (≈ 17.4 µg/mL) | 15.6 (≈ 4.34 µg/mL) | 3.9 (≈ 1.08 µg/mL) | 62.5 (≈ 17.4 µg/mL) | 125 (≈ 34.7 µg/mL) | 1.95 (≈ 0.542 µg/mL) | 31.2 (≈ 8.68 µg/mL) | – |
| Cc1ccc(C(=S)NCc2ccccc2)c(O)c1 | 250 (≈ 64.3 µg/mL) | 62.5 (≈ 16.1 µg/mL) | 62.5 (≈ 16.1 µg/mL) | 125 (≈ 32.2 µg/mL) | 7.81 (≈ 2.01 µg/mL) | 125 (≈ 32.2 µg/mL) | 125 (≈ 32.2 µg/mL) | 62.5 (≈ 16.1 µg/mL) | 62.5 (≈ 16.1 µg/mL) | 125 (≈ 32.2 µg/mL) | 31.2 (≈ 8.04 µg/mL) | 31.2 (≈ 8.04 µg/mL) | 62.5 (≈ 16.1 µg/mL) | 250 (≈ 64.3 µg/mL) | 31.2 (≈ 8.04 µg/mL) | 125 (≈ 32.2 µg/mL) | – |
| Cc1ccc(CNC(=S)c2ccc(C)cc2O)cc1 | 500 (≈ 136 µg/mL) | 31.2 (≈ 8.48 µg/mL) | 62.5 (≈ 17 µg/mL) | 125 (≈ 33.9 µg/mL) | 7.81 (≈ 2.12 µg/mL) | 250 (≈ 67.8 µg/mL) | 125 (≈ 33.9 µg/mL) | 62.5 (≈ 17 µg/mL) | 125 (≈ 33.9 µg/mL) | 125 (≈ 33.9 µg/mL) | 31.2 (≈ 8.48 µg/mL) | 15.6 (≈ 4.24 µg/mL) | 125 (≈ 33.9 µg/mL) | 500 (≈ 136 µg/mL) | 15.6 (≈ 4.24 µg/mL) | 500 (≈ 136 µg/mL) | – |
| COc1ccc(C(=S)NCc2ccccc2)c(O)c1 | 500 (≈ 137 µg/mL) | 250 (≈ 68.3 µg/mL) | 250 (≈ 68.3 µg/mL) | 250 (≈ 68.3 µg/mL) | 62.5 (≈ 17.1 µg/mL) | 250 (≈ 68.3 µg/mL) | 500 (≈ 137 µg/mL) | 250 (≈ 68.3 µg/mL) | 250 (≈ 68.3 µg/mL) | 250 (≈ 68.3 µg/mL) | 250 (≈ 68.3 µg/mL) | 62.5 (≈ 17.1 µg/mL) | 62.5 (≈ 17.1 µg/mL) | 250 (≈ 68.3 µg/mL) | 62.5 (≈ 17.1 µg/mL) | 500 (≈ 137 µg/mL) | – |
| COc1ccc(O)c(C(=S)NCc2ccccc2)c1 | – | – | – | – | – | – | – | – | – | – | – | – | – | – | – | – | logMIC (Nakaseomyces glabratus [1]): 2.4; logMIC (Trichosporon asahii [2]): 2.1; logMIC (Trichosporon asahii [3]): 2.4; logMIC (Pichia kudriavzevii [4]): 2.4; logMIC (Lichtheimia corymbifera [5]): 1.49; logMIC (Candida albicans [6]): 2.4; logMIC (Nakaseomyces glabratus [7]): 2.4; logMIC (Pichia kudriavzevii [8]): 2.4; logMIC (Aspergillus fumigatus [9]): 2.4; logMIC (Candida tropicalis [10]): 2.4; logMIC (Lichtheimia corymbifera [11]): 2.1; logMIC [12]: 1.8; logMIC (Candida albicans [13]): 2.1; logMIC (Candida tropicalis [14]): 2.4; logMIC [15]: 1.8; logMIC (Aspergillus fumigatus [16]): 2.4 |
